Results taken from ChEMBL document CHEMBL2029347, “Identification of blapsins A and B as potent small-molecule 14-3-3 inhibitors from the insect Blaps japanensis” (Bioorg Med Chem Lett, 2012).

Columns and labels:
14-3-3 protein gamma [1] = molecular target: T1, 14-3-3 protein gamma (Homo sapiens, UniProt P61981); assay: Inhibition of recombinant GST-tagged 14-3-3gamma interaction with PRAS40 in Cos7 cell lysate by ELISA; type: cell-free
T1 sequence (P61981 whole entry): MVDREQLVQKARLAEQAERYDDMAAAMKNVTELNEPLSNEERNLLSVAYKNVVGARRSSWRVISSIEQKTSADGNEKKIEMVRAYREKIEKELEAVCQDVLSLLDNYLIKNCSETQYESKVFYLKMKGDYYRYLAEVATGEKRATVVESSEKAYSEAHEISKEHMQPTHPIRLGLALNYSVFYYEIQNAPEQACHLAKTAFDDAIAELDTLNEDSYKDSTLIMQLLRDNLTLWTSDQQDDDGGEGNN

14-3-3 protein gamma [2] = molecular target: T1, 14-3-3 protein gamma; assay: Inhibition of recombinant GST-tagged 14-3-3gamma interaction with TMR-pS259-Raf peptide after 30 mins by fluorescence polarization assay

IC50 (14-3-3 protein gamma [1]) [µM] | IC50 (14-3-3 protein gamma [2]) [µM] | SMILES
9.2 | 2 | O=C(Cc1ccc(O)c(O)c1)OCCc1ccc(O)c(O)c1 [BLAPSIN A]
10 | 2.5 | Oc1ccc(C2OCCc3cc(O)c(O)cc32)cc1O (racemic) [BLAPSIN B]
